Data as given in PMC8940841, “A metabolically stable PET tracer for imaging synaptic vesicle protein 2A: synthesis and preclinical characterization of [^18F]SDM-16” (European Journal of Nuclear Medicine and Molecular Imaging, 2021).
Like-named read-outs stand apart in the source and are kept apart here.

How the values were obtained:
human SV2A [1] = molecular target: T1, human SV2A (Homo sapiens, UniProt Q7L0J3); assay: biochemical
Procedure: Competition binding assays were performed twice independently using separate assay materials, with 4 technical replicates from each independent assay. […] Duplicate samples of human frontal cortex gray matter were homogenized in PBS buffer (10 mg/mL) for storage at − 80 °C and were diluted to a stock concentration of 4 mg/mL in PBS on the day of the assays. […] Working stocks of brain homogenate (100 µL; final concentration of 2 mg/mL), blocking ligands (20 µL), and radioligand (80 µL; final concentration 2.5 nM) were combined in quadruplicate wells of 96-well plates, sealed, and incubated at room temperature for 90 min on an orbital shaker set to 250 RPM. Reaction plates were filtered, rapidly washed with cold PBS, and dried. Forty microliters of Microscint-20 scintillation cocktail (Perkin-Elmer) was added to each well, and the plate was counted using a Microbeta2 plate reader (Perkin-Elmer). GraphPad Prism was used for curve fitting using the one-site Ki model.

[2] = Adverse event observation during PET imaging; type: in vivo, rhesus monkeys; details: tracer at microdose 0.646–0.926 µg; LEV i.v. 30 mg/kg
Procedure: (§1) Four monkeys were studied.
Adverse event was also not observed following LEV (i.v., 30 mg/kg) administration, including the displacement and blocking scan.

human SV2A [3] = molecular target: T1, human SV2A; design: Duplicate samples of human frontal cortex gray matter were homogenized in PBS buffer; from tissue; host or cells: human frontal cortex gray matter homogenate; details: other SV2A ligands; cited from earlier work
SV2A = SV2A (Macaca mulatta, UniProt H9EQH8); assay: LEV blocking and displacement PET scans, Lassen plot; type: in vivo, rhesus monkeys (Macaca mulatta); design: from tissue; host or cells: brain of living rhesus monkeys (in vivo PET); details: LEV 30 mg/kg i.v., Lassen plot with [^18F]SDM-16
Sequence of SV2A (H9EQH8 1-742): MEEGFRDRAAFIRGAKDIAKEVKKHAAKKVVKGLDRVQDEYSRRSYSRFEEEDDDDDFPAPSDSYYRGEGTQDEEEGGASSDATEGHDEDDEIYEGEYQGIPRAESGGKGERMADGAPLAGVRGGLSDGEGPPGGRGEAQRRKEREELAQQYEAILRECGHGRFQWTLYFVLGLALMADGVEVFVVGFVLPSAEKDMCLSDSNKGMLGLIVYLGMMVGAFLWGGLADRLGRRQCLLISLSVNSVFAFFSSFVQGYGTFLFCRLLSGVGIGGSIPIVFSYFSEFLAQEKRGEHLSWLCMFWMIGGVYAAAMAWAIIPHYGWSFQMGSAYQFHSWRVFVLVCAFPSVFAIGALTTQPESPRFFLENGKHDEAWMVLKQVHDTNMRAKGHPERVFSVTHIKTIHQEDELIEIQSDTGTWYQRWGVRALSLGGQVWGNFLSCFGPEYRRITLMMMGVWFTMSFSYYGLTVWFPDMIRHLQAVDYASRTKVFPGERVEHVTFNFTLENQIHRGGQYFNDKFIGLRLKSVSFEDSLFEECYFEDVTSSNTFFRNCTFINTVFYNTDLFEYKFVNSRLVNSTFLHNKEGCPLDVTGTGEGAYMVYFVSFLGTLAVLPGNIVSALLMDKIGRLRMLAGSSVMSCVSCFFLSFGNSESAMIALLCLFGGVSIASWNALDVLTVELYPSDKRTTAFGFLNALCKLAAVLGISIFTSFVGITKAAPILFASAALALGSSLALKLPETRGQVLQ
Excerpt: as §1
To examine the in vivo binding specificity, SV2A occupancy, and the extent of nonspecific binding in the monkey brain, we performed the Lassen plot analysis using data from the two baseline scans and one blocking scan in the same monkey.

T1 sequence (Q7L0J3 whole entry): as the sequence (H9EQH8 1-742) above, with S64G, V572I counted along it

Row | Structure (SMILES) | Ki (human SV2A [1]) | Ki (human SV2A [1]; [^3H]UCB-J, human frontal cortex homogenate) | adverse events [2] | Ki (human SV2A [3]) | SV2A occupancy (SV2A)
1 | Cc1nccn1CN1CC(c2cc(F)cc(F)c2)CC1=O (racemic) [Rac SDM-16, 4-(3,5-difluorophenyl)-1-((2-methyl-1H-imidazol-1-yl)methyl)pyrrolidin-2-one] | 3.7 nM | – | – | – | –
2 | Cc1nccn1CN1C[C@H](c2cc(F)cc(F)c2)CC1=O [(S)-SDM-16] | – | 25.5 nM | – | – | –
3 | CC[C@@H](C(N)=O)N1CCCC1=O [Levetiracetam, levetiracetam, reference compound] | – | – | not observed | 2100 nM | 79%
4 | Cc1nccn1CN1C[C@@H](c2cc(F)cc(F)c2)CC1=O [SDM-16] | 0.9 nM | – | no adverse events were observed | – | –
